In article PMC7058083, “Structural basis of ligand binding modes at the human formyl peptide receptor 2” (Nature Communications, 2020):
Substitutions are numbered along the chain they refer to.

Experiments:
Assay in all cases: Saturation binding of WK(FITC)YMVm, flow cytometry on HEK293F cells
[1] = molecular target: T1, wild-type (WT) and mutant FPR2 (Homo sapiens, UniProt P25090, N285A); settings: FPR2 N285A
T1 construct: expressed in transfected cells; host or cells: HEK293F
T1 sequence (P25090 1-351 N285A): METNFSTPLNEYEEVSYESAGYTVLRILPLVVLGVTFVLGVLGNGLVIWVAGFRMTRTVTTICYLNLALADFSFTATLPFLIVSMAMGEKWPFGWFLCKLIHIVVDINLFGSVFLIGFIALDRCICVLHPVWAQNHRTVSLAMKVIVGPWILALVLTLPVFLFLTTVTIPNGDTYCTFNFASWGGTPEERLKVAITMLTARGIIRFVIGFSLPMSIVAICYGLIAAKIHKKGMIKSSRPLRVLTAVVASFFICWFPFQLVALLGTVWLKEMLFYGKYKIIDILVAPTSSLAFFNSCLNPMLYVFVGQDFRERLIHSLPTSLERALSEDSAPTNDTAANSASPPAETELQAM
Experimental: (§1) Flag-tagged wild-type and mutant FPR2s were cloned into the pTT5 vector and expressed in HEK293F cells. The cells were harvested, and washed with Hanks’ Balanced Salt Solution (HBSS) buffer supplemented with 0.5% bovine serum albumin and 20 mM HEPES, pH 7.4. The cells were then resuspended in the same buffer to the final concentration of 1 × 10^6 cells per ml. The cell-surface expression was measured as mentioned above. […] Mean fluorescent intensity of each well was then read by a FCM (flow cytometry) reader (Millipore). […] For competitive binding of fMLFK, cells were plated in 96-well plates (100,000 cells per well), and incubated with WK(FITC)YMVm at 4 °C for 1 h. The following concentrations of WK(FITC)YMVm were used: 10 nM (wild type, L81^2.60F, E89G, and V105^3.32A), 30 nM (D281^7.32G), 40 nM (H102^3.29F, V160^4.60A, L268^ECL3A, N285^7.36A, and F292^7.43A), and 100 nM (L164^4.64A and T177A). Then increasing concentrations of fMLFK (100 nM–1 mM) were added, and incubated for another 1 h on ice. Mean fluorescent intensity values were measured by flow cytometry. Data were analyzed using Prism 7.0.

[2] = molecular target: T2, wild-type (WT) and mutant FPR2 (Homo sapiens, UniProt P25090, L198F); settings: FPR2 L198F
T2 construct: expressed in transfected cells; host or cells: HEK293F
T2 sequence (P25090 whole entry L198F): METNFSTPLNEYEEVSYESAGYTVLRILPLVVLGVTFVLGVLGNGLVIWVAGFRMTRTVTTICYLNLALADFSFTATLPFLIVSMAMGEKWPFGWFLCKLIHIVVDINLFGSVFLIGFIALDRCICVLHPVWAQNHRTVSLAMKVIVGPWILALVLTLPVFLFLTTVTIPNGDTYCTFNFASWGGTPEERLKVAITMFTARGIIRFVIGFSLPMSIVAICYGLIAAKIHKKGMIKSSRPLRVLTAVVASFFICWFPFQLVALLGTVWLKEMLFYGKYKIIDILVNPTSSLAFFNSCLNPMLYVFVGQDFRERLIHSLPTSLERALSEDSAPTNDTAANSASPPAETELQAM
Experimental: as §1

[3] = molecular target: T3, wild-type (WT) and mutant FPR2 (Homo sapiens, UniProt P25090, F5A); settings: FPR2 F5A
T3 construct: expressed in transfected cells; host or cells: HEK293F
T3 sequence (P25090 whole entry F5A): as the sequence (P25090 whole entry L198F) above, with F5A, F198L counted along it
Experimental: as §1

[4] = molecular target: T4, wild-type (WT) and mutant FPR2 (Homo sapiens, UniProt P25090); settings: FPR2 WT
T4 construct: expressed in transfected cells; host or cells: HEK293F
T4 sequence (P25090 1-351): T1 sequence (P25090 1-351 N285A) with A285N
Experimental: as §1

[5] = molecular target: T5, wild-type (WT) and mutant FPR2 (Homo sapiens, UniProt P25090, S211L)
T5 construct: expressed in transfected cells; host or cells: HEK293F
T5 sequence (P25090 other isoform, or with tags, fused parts or gaps S211L): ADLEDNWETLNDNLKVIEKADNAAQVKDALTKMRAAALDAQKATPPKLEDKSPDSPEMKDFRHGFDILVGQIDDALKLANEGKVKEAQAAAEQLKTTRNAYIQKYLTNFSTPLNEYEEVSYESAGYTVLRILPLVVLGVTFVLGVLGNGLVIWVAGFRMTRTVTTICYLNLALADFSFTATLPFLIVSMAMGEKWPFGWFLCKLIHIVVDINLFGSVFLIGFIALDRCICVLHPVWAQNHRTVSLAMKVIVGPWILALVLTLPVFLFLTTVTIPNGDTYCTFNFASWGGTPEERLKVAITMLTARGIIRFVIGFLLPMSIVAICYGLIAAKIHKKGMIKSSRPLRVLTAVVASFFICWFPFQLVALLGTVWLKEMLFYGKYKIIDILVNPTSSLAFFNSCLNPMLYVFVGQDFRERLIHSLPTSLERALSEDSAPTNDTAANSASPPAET
Experimental: as §1

[6] = molecular target: T6, wild-type (WT) and mutant FPR2 (Homo sapiens, UniProt P25090, L81F); settings: FPR2 L81F
T6 construct: expressed in transfected cells; host or cells: HEK293F
T6 sequence (P25090 1-351 L81F): T1 sequence (P25090 1-351 N285A) with L81F, A285N
Experimental: as §1

[7] = molecular target: T7, wild-type (WT) and mutant FPR2 (Homo sapiens, UniProt P25090, D281L); settings: FPR2 D281L
T7 construct: expressed in transfected cells; host or cells: HEK293F
T7 sequence (P25090 whole entry D281L): as the sequence (P25090 whole entry L198F) above, with F198L, D281L counted along it
Experimental: as §1

[8] = molecular target: T8, wild-type (WT) and mutant FPR2 (Homo sapiens, UniProt P25090, T177A); settings: FPR2 T177A
T8 construct: expressed in transfected cells; host or cells: HEK293F
T8 sequence (P25090 1-351 T177A): T1 sequence (P25090 1-351 N285A) with T177A, A285N
Experimental: as §1

[9] = tested on: wild-type (WT) and mutant FPR2; design: species or system human
Experimental: as §1

[10] = molecular target: T9, wild-type (WT) and mutant FPR2 (Homo sapiens, UniProt P25090, R201F); settings: mutation R201F
T9 construct: expressed in transfected cells; host or cells: HEK293F
T9 sequence (P25090 whole entry R201F): as the sequence (P25090 whole entry L198F) above, with F198L, R201F counted along it
Experimental: as §1

For CSCC[C@H](NC(=O)[C@H](Cc1ccc(O)cc1)NC(=O)[C@H](CCCCNC(=S)Nc1ccc2c(c1)C(=O)OC21c2ccc(O)cc2Oc2cc(O)ccc21)NC(=O)[C@@H](N)Cc1c[nH]c2ccccc12)C(=O)N[C@H](C(=O)N[C@H](CCSC)C(N)=O)C(C)C [WK(FITC)YMVm], the “Span (% of WT), saturation binding” value [1] was 85 ± 13 % of WT, the Kd ([1]; mean ± s.e.m., n=4, SEM) was 43.3 ± 15.3 nM and the “Span (% of WT), saturation binding” value [2] was 60 ± 9 % of WT. The Kd ([2]; mean ± s.e.m., n=3, SEM) was 21.4 ± 5.3 nM, the “Span (% of WT), saturation binding” value [3] was 62 ± 7 % of WT and the Kd ([3]; mean ± s.e.m., n=3, SEM) was 15.1 ± 7.4 nM. For the same molecule, the “Span (% of WT), saturation binding” value [4] was 100 % of WT, the Kd ([4]; mean ± s.e.m., n=3, SEM) was 24.0 ± 8.5 nM and the “Span (% of WT), saturation binding” value ([5]; FPR2 crystallization construct) was 154 ± 21 % of WT. For the same molecule, the Kd ([5]; FPR2 crystallization construct (N-terminal bRIL, S211L, 5 C-terminal residues truncated), mean ± s.e.m., n=5, SEM) was 27.7 ± 5.6 nM, the “Span (% of WT), saturation binding” value [6] was 42 ± 4 % of WT and the Kd ([6]; mean ± s.e.m., n=3, SEM) was 24.3 ± 8.4 nM. For the same molecule, the “Span (% of WT), saturation binding” value [7] was 39 ± 11 % of WT, the Kd ([7]; mean ± s.e.m., n=3, SEM) was 57.6 ± 14.0 nM and the “Span (% of WT), saturation binding” value [8] was 66 ± 5 % of WT. For the same molecule, the Kd ([8]; mean ± s.e.m., n=3, SEM) was 109 ± 34 nM, the “reduction of binding affinity of WK(FITC)YMVm” value ([9]; mutant F257Y vs WT) was 7 fold and the “binding of WK(FITC)YMVm” value ([9]; mutants D281G and D281L) was “decreased binding”. For the same molecule, the “binding of WK(FITC)YMVm” value ([9]; mutations D106A and R201A) was “significantly impaired”, the “binding of FPR2 to WK(FITC)YMVm” value ([9]; mutations V105F, L109A, F110A, V113A, L164W, F178A, F180A, W254A, F257A and M271A) was “abolish the binding” and the “WK(FITC)YMVm binding” value [10] was “substantially reduced”.
